Results as given in paper PMC4512978, “Synthesis and evaluation in rats of homologous series of [^18F]-labeled dopamine D2/3 receptor agonists based on the 2-aminomethylchroman scaffold as potential PET tracers” (EJNMMI Research, 2015).

Key:
[1] = Ex vivo tissue uptake after the PET scan (gamma-counter); type: in vivo, Sprague-Dawley rats
Method: After the end of the PET scans (i.e., 98 ± 8 min after tracer injection), anesthetized animals were sacrificed by heart extirpation and dissected. Samples of brain and peripheral tissues were taken. All samples were weighed, and their radioactivity was measured in a gamma-counter.

D2/3R = tested on: D2/3R; design: method as in PMID 24325578; settings: [^18F]FBu-AMC13 0.2 nM, [^18F]FEt-AMC15 5.8 ± 1.6 nM, cited from earlier work
[2] = raclopride 1 mg/kg, after PET scan

## Oc1ccc2c(c1)O[C@@H](CNCCN1CCN(c3ccc(OCC[18F])cc3)CC1)CC2 [[^18F]FEt-AMC15, (R) 1-(4-(2-[^18F]fluoroethoxy)phenyl)-4-(4-(7-hydroxychroman-2-yl)-3-azabutyl)-piperazine]
[1]; RAC
  Ex vivo uptake, Adipose tissue: 0.10±0.05 SUV
  Ex vivo uptake, Adrenal glands: 1.73±1.07 SUV
  Ex vivo uptake, Bladder: 0.69±0.30 SUV
  Ex vivo uptake, Blood cells: 0.05±0.04 SUV
  Ex vivo uptake, Bone: 0.12±0.08 SUV
  Ex vivo uptake, Bone marrow: 0.91±0.53 SUV
  Ex vivo uptake, Caecum: 0.91±1.10 SUV
  Ex vivo uptake, Duodenum: 22.8±36.6 SUV
  Ex vivo uptake, Heart: 0.15±0.10 SUV
  Ex vivo uptake, Kidney: 0.61±0.51 SUV
  Ex vivo uptake, Large intestine: 1.20±1.48 SUV
  Ex vivo uptake, Large intestine content: 0.06±0.04 SUV
  Ex vivo uptake, Liver: 1.47±1.56 SUV
  Ex vivo uptake, Lung: 1.19±0.40 SUV
  Ex vivo uptake, Muscle: 0.15±0.11 SUV
  Ex vivo uptake, Pancreas: 0.92±0.77 SUV
  Ex vivo uptake, Plasma: 0.07±0.02 SUV
  Ex vivo uptake, Prostate: 0.42±0.10 SUV
  Ex vivo uptake, Small intestine: 11.1±18.4 SUV
  Ex vivo uptake, Small intestine content: 60.5±104 SUV
  Ex vivo uptake, Spleen: 1.62±1.15 SUV
  Ex vivo uptake, Stomach: 1.73±0.75 SUV
  Ex vivo uptake, Submandibular gland: 1.41±0.34 SUV
  Ex vivo uptake, Testes: 0.04±0.01 SUV
  Ex vivo uptake, Thymus: 0.43±0.15 SUV
  Ex vivo uptake, Urine: 2.32±3.35 SUV
  Ex vivo uptake, Whole blood: 0.12±0.08 SUV
[1]; SAL
  Ex vivo uptake, Adipose tissue: 0.18±0.09 SUV
  Ex vivo uptake, Adrenal glands: 1.53±0.58 SUV
  Ex vivo uptake, Bladder: 0.23±0.05 SUV
  Ex vivo uptake, Blood cells: 0.05±0.04 SUV
  Ex vivo uptake, Bone: 0.14±0.03 SUV
  Ex vivo uptake, Bone marrow: 0.98±0.36 SUV
  Ex vivo uptake, Caecum: 0.15±0.10 SUV
  Ex vivo uptake, Duodenum: 1.92±0.35 SUV
  Ex vivo uptake, Heart: 0.11±0.04 SUV
  Ex vivo uptake, Kidney: 0.40±0.10 SUV
  Ex vivo uptake, Large intestine: 0.15±0.07 SUV
  Ex vivo uptake, Large intestine content: 0.02±0.01 SUV
  Ex vivo uptake, Liver: 0.86±0.23 SUV
  Ex vivo uptake, Lung: 1.18±0.16 SUV
  Ex vivo uptake, Muscle: 0.07±0.04 SUV
  Ex vivo uptake, Pancreas: 0.75±0.27 SUV
  Ex vivo uptake, Plasma: 0.14±0.11 SUV
  Ex vivo uptake, Prostate: 0.38±0.15 SUV
  Ex vivo uptake, Small intestine: 0.18±0.07 SUV
  Ex vivo uptake, Small intestine content: 0.56±0.24 SUV
  Ex vivo uptake, Spleen: 1.52±0.68 SUV
  Ex vivo uptake, Stomach: 1.79±0.92 SUV
  Ex vivo uptake, Submandibular gland: 1.51±0.26 SUV
  Ex vivo uptake, Testes: 0.04±0.01 SUV
  Ex vivo uptake, Thymus: 0.49±0.09 SUV
  Ex vivo uptake, Urine: 0.69±0.33 SUV
  Ex vivo uptake, Whole blood: 0.06±0.03 SUV
[1]; [2]
  Ex vivo uptake, Brainstem: 0.03 ± 0.01 SUV
  Ex vivo uptake, Cerebellum: 0.03 ± 0.01 SUV
  Ex vivo uptake, Cortex: 0.03 ± 0.01 SUV
  Ex vivo uptake, Hippocampus: 0.03 ± 0.01 SUV
  Ex vivo uptake, Mean brain uptake: 0.03 ± 0.01 SUV
  Ex vivo uptake, Olfactory bulbs: 0.03 ± 0.02 SUV
  Ex vivo uptake, Parietal bone: 0.08 ± 0.03 SUV
  Ex vivo uptake, Pituitary: 1.08 ± 0.27 SUV
  Ex vivo uptake, Rest of brain: 0.03 ± 0.02 SUV
  Ex vivo uptake, Striatum: 0.03 ± 0.01 SUV
  Ex vivo uptake, Thalamus + hypothalamus: 0.03 ± 0.01 SUV
[1]; saline, after PET scan
  Ex vivo uptake, Brainstem: 0.03 ± 0.004 SUV
  Ex vivo uptake, Cerebellum: 0.03 ± 0.01 SUV
  Ex vivo uptake, Cortex: 0.03 ± 0.003 SUV
  Ex vivo uptake, Hippocampus: 0.03 ± 0.02 SUV
  Ex vivo uptake, Mean brain uptake: 0.03 ± 0.01 SUV
  Ex vivo uptake, Olfactory bulbs: 0.03 ± 0.001 SUV
  Ex vivo uptake, Parietal bone: 0.09 ± 0.03 SUV
  Ex vivo uptake, Pituitary: 1.36 ± 0.30 SUV
  Ex vivo uptake, Rest of brain: 0.02 ± 0.02 SUV
  Ex vivo uptake, Thalamus + hypothalamus: 0.03 ± 0.01 SUV
[1]; saline, after PET scan (98 ± 8 min p.i.)
  Ex vivo uptake, Striatum: 0.02 ± 0.02 SUV
D2/3R; 10 μM raclopride
  Striatal SBR % change relative to control condition, Raclopride: −60%
  Striatal SBR, Raclopride: 0.65 ± 0.37
D2/3R; 100 μM GTP
  Striatal SBR % change relative to control condition, GTP: −59%
  Striatal SBR, GTP: 0.67 ± 0.28
D2/3R; radioligand only
  Striatal SBR, Control: 1.64 ± 1.04
